According to patent US12312599B2, “Methods, compositions, and kits for producing beige adipocytes and treating metabolic disorders” (MaineHealth, priority 2018, dated 2025):

Tested on: FD-MSCs
Assay: Beige adipogenic precursor markers in FD-MSCs (flow cytometry, immunostaining, qPCR)
Assay type: cell-based, human
Details: SB pretreatment 2 days
Experimental: All assays were performed between 7 and 15 passages. For osteocyte differentiation, mature MSCs were grown in 24 well culture plates to 100% confluency in MesenCult-ACF and induced to differentiate in OsteoLife Complete Osteogenesis Medium (Lifeline Cell Technology) for 21 days prior to staining with Lifeline Alizarin Red Stain to visualize calcium deposition. For chondrocyte differentiation. For beige adipogenic precursor generation, cells were grown in 24 well culture plates to 90% confluence and treated with 5 uM SB413542 (Sigma) and 10 nM human IL-4 (Peprotech) for 2 days. For beige adipogenic induction, adipogenic precursors are differentiated for 3 days with adipogenic medium consisting of T3 (2 nM), insulin (170 nM), rosiglitazone (1 μM), SB413542 (5 uM), IBMX (0.5 mM), dexamethasone (5 μM) and indomethacin (125 μM) in EGM-2 medium (Lonza) supplemented with the BulletKit minus FGF2 (modified from^33). Thereafter, cells are maintained in adipogenic medium without IBMX, dexamethasone and indomethacin. The medium was changed every 3 days and adipocytes were fully differentiated by 9-12 days as determined by lipid accumulation and peak expression of UCP1.
Cell Isolation, Expansion and Differentiation of Interscapular Brown Adipose Tissue Preadipocytes • 1. Prior to adipose cell isolation, warm DMEM, FBS and cell wash buffer to room temperature. • 2. In a laminar flow cabinet for cell culture, place 5 g of adipose tissue on a 100×20 mm dish. Suspend tissue in 1 mL of Adipose Tissue Dissociation Kit enzyme digest cocktail and finely mince with a razorblade. • 3. Transfer cell suspension slurry to a 5 mL polystyrene round bottom tube and add an additional 1.5 mL of enzyme digest cocktail to tube. • 4. Incubate tube at 37° C. on a rotating nutator for 30 minutes. During incubation period, briefly vortex sample for 5 s in 10-minute intervals. • 5. Transfer cells to a 15 mL tube and add 5 mL of DMEM. Filter cell suspension through a 100 μm strainer into a new 15 mL tube and centrifuge at 300 g for 5 minutes to form a pellet. • 6. Remove supernatant and leave behind […] of DMEM. […]

Structure (SMILES): NC(=O)c1ccc(-c2nc(-c3ccc4c(c3)OCO4)c(-c3ccccn3)[nH]2)cc1 [SB, SB431542]
- cell surface expression of PDGFRα and MSCA1: increased
- nuclear accumulation of EBF2: significantly increased
